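Values below derive from 48-hour exposures of cells grown in 96-well plates, with endpoints linearly interpolated between the two concentrations bracketing the appropriate inhibition level. GI50 marks 50% less growth. At the TGI there is no net growth.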
Assays:
Assay in all cases: DTP human tumour cell line panel, 48 h
[1] = tested on: 786-0 renal
[2] = tested on: A498 renal
[3] = tested on: A549 NSCLC
[4] = tested on: ACHN renal
[5] = tested on: BT-549 breast
[6] = tested on: CAKI-1 renal
[7] = tested on: CCRF-CEM leukemia
[8] = tested on: COLO 205 colon
[9] = tested on: DU-145 prostate
[10] = tested on: EKVX NSCLC
[11] = tested on: HCC-2998 colon
[12] = tested on: HCT-116 colon
[13] = tested on: HCT-15 colon
[14] = tested on: HL-60(TB) leukemia
[15] = tested on: HOP-62 NSCLC
[16] = tested on: HOP-92 NSCLC
[17] = tested on: HS 578T breast
[18] = tested on: HT29 colon
[19] = tested on: IGROV1 ovarian
[20] = tested on: K-562 leukemia
[21] = tested on: KM12 colon
[22] = tested on: LOX IMVI melanoma
[23] = tested on: M14 melanoma
[24] = tested on: MALME-3M melanoma
[25] = tested on: MCF7 breast
[26] = tested on: MDA-MB-231 breast
[27] = tested on: MDA-MB-435
[28] = tested on: MDA-MB-468 breast
[29] = tested on: MOLT-4 leukemia

C[C@H](Nc1nc(NCCc2ccccc2)nc2ccccc12)c1ccccc1
GI50 [1]: 1480 nM | TGI [1]: 2840 nM | GI50 [2]: 1450 nM | TGI [2]: 3370 nM | GI50 [3]: 1760 nM | TGI [3]: 6180 nM | GI50 [4]: 1720 nM | TGI [4]: 3810 nM | GI50 [5]: 1330 nM | TGI [5]: 2640 nM | GI50 [6]: 1360 nM | TGI [6]: 2730 nM | GI50 [7]: 1950 nM | TGI [7]: 7660 nM | GI50 [8]: 1150 nM | TGI [8]: 2430 nM | GI50 [9]: 2480 nM | TGI [9]: 6950 nM | GI50 [10]: 1420 nM | TGI [10]: 3210 nM | GI50 [11]: 1400 nM | TGI [11]: 2700 nM | GI50 [12]: 1260 nM | TGI [12]: 2510 nM | GI50 [13]: 1420 nM | TGI [13]: 2900 nM | GI50 [14]: 1400 nM | TGI [14]: 3980 nM | GI50 [15]: 1520 nM | TGI [15]: 2930 nM | GI50 [16]: 1080 nM | TGI [16]: 2470 nM | GI50 [17]: 1450 nM | TGI [17]: 3460 nM | GI50 [18]: 1260 nM | TGI [18]: 2960 nM | GI50 [19]: 1550 nM | TGI [19]: 3260 nM | GI50 [20]: 1040 nM | TGI [20]: 3620 nM | GI50 [21]: 1780 nM | TGI [21]: 3730 nM | GI50 [22]: 1590 nM | TGI [22]: 3010 nM | GI50 [23]: 1530 nM | TGI [23]: 2920 nM | GI50 [24]: 1400 nM | TGI [24]: 2780 nM | GI50 [25]: 1470 nM | TGI [25]: 2990 nM | GI50 [26]: 1680 nM | TGI [26]: 3100 nM | GI50 [27]: 1370 nM | TGI [27]: 2730 nM | GI50 [28]: 1130 nM | TGI [28]: 2450 nM | GI50 [29]: 1500 nM | TGI [29]: 3640 nM

Source: PubChem BioAssay (NCI)
